Source: paper PMC3764026, “Adaptive Evolution of Escherichia coli to an α-Peptide/β-Peptoid Peptidomimetic Induces Stable Resistance” (PLoS ONE, 2013)
In brackets after ≈: the same amount, converted by molar mass. Like-named read-outs stand apart in the source and are kept apart here.

Legend:
[1] = system: Escherichia coli ATCC 25922; format: cell-based; settings: wild-type E. coli ATCC 25922; MHB pH 7.4, 5×10^5 CFU/mL, 37°C, 18–20 h
Procedure: All experiments were performed with Escherichia coli ATCC 25922. Stock cultures of the wild-type strain and lineage isolates were stored at –80°C in 4% (w/v) glycerol, 0.5% (w/v) glucose, 2% (w/v) skimmed milk powder and 3% (w/v) tryptone soy powder. Lineage populations were frozen at –80°C in 50% (w/v) glycerol. All experiments were performed at 37°C. Experiments were carried out in cation-adjusted Mueller Hinton II broth (MHB) (Becton Dickinson 212322) adjusted to pH 7.4 or in 1% (w/v) peptone (Becton Dickinson 211677) for MIC determination of natural AMPs. Brain Heart Infusion (BHI) (CM1135) with agar (VWR 20768.292) 1.5% as gelling agent was used throughout for colony plating.
MIC was determined by using the micro-dilution method according to guidelines of the Clinical and Laboratory Standards Institute. Peptidomimetic 1 and erythromycin 1∶2 serial dilutions were prepared from 1024 µg/mL stock solutions to give a final range of 512-0.5 µg/mL in the wells. Ampicillin 1∶2 serial dilutions were prepared from a 256 µg/mL stock solution to give a final range of 128-0.13 µg/mL in the wells. Polymyxin B and gentamicin 1∶2 serial dilutions were prepared from a 64 µg/mL stock solution to give a final range of 32-0.03 µg/mL in the wells. Also, 1∶2 serial dilutions of the AMPs KR-12, IsCTp, melittin and PEP-1-K were prepared from 64 µg/mL stock solutions to give a final range of 32-0.03 µg/mL in the wells; however this was performed in 1% peptone instead of in MHB since activity was drastically diminished in the latter (not shown).
The population lineages were tested for their susceptibility towards peptidomimetic 1, polymyxin B, gentamicin and ampicillin. Single-culture isolates selected from these populations were additionally tested against peptidomimetic 1, polymyxin B, erythromycin and the five reference AMPs. To estimate the level of cross-resistance to closely related peptidomimetics, MIC determinations were performed for peptidomimetics 2 and 3 (Figure 1) towards selected isolates. […]

[2] = system: isolates from peptidomimetic 1-exposed E. coli ATCC 25922 lineages; settings: for MIC in MHB: standard MHB media
Procedure: Continuous selection of resistance was performed for peptidomimetic 1 (Figure 1) and for the clinically relevant natural antimicrobial peptide, polymyxin B. A bacterial suspension of a single colony of E. coli ATCC 25922 was re-inoculated (10 µl) five times in unsupplemented MHB (990 µl). It was then re-inoculated in MHB supplemented with peptidomimetic 1 (ten lineages) or polymyxin B (ten lineages), and after ten re-inoculations at constant peptidomimetic or polymyxin B concentration, the concentrations were doubled. […] Four lineages grown in MHB with MilliQ water were included as control. Re-inoculations were performed twice a day, but were reduced to once a day when growth was slower as assessed by turbidity of the cultures. The total number of passages (supplemented with peptidomimetic/AMP) was 77 times equivalent to approx. 500 generations. For each increase in concentration the lineages were preserved as freezing stocks. Ten colony isolates were randomly selected from each lineage population at 32×MIC and preserved as freezing stocks.
MIC was determined by using the micro-dilution method according to guidelines of the Clinical and Laboratory Standards Institute. Peptidomimetic 1 and erythromycin 1∶2 serial dilutions were prepared from 1024 µg/mL stock solutions to give a final range of 512-0.5 µg/mL in the wells. Ampicillin 1∶2 serial dilutions were prepared from a 256 µg/mL stock solution to give a final range of 128-0.13 µg/mL in the wells. Polymyxin B and gentamicin 1∶2 serial dilutions were prepared from a 64 µg/mL stock solution to give a final range of 32-0.03 µg/mL in the wells.
The population lineages were tested for their susceptibility towards peptidomimetic 1, polymyxin B, gentamicin and ampicillin. Single-culture isolates selected from these populations were additionally tested against peptidomimetic 1, polymyxin B, erythromycin and the five reference AMPs. To estimate the level of cross-resistance to closely related peptidomimetics, MIC determinations were performed for peptidomimetics 2 and 3 (Figure 1) towards selected isolates. The bacterial suspensions were grown overnight in MHB at 37°C for determination of the population MIC, or individual isolates were grown overnight on non-selective BHI agar at 37°C. […] In all experiments, bacterial cells were suspended in 0.9% saline to give a turbidity of 0.13 at OD546 (approximately 1×10^8 CFU/mL) and diluted in MHB pH 7.4 to a final concentration of 5×10^5 CFU/mL in each well. Polypropylene plates (Nunc 442587) were used to minimize peptide binding, and the incubation time was 18–20 hours at 37°C. […] MIC was found in a minimum of two technical (population MIC) or biological (isolate MIC) replicates as the lowest concentration of the AMP or antibiotic where no visible growth was observed.

With `CC(=O)N[C@@H](CCCCNC(=N)N)C(=O)N(CCC(=O)N[C@@H](CCCCNC(=N)N)C(=O)N(CCC(=O)N[C@@H](CCCCNC(=N)N)C(=O)N(CCC(=O)N[C@@H](CCCCNC(=N)N)C(=O)N(CCC(=O)N[C@@H](CCCCNC(=N)N)C(=O)N(CCC(=O)N[C@@H](CCCCNC(=N)N)C(=O)N(CCC(N)=O)[C@@H](C)c1ccccc1)[C@@H](C)c1ccccc1)[C@@H](C)c1ccccc1)[C@@H](C)c1ccccc1)[C@@H](C)c1ccccc1)[C@@H](C)c1ccccc1` [peptidomimetic 1] the “wt MIC” value [1] was 8 µg/mL, the “MIC of individual isolates” value ([2]; eight out of ten isolates from lineage no. 4) was 8 µg/mL and the MIC of isolate ([2]; isolate 2–3, first listed of three biological replicates) was 8 µg/mL. The MIC of isolate ([2]; isolate 2–3, second listed of three biological replicates) was 16 µg/mL, the MIC of isolate ([2]; isolate 2–3, third listed of three biological replicates) was 64 µg/mL and the “MIC in MHB” value ([2]; isolate 2–7 (lineage 2)) was 64 to 128 µg/mL. The MIC of isolate ([2]; isolate 2–8, first listed of three biological replicates) was 16 µg/mL, the MIC of isolate ([2]; isolate 2–8, second listed of three biological replicates) was 64 µg/mL and the MIC of isolate ([2]; isolate 2–8, third listed of three biological replicates) was 128 µg/mL. The “MIC in MHB” value ([2]; isolate 4–4 (lineage 4)) was 8 µg/mL (≈ 3.75 µM), the “MIC in MHB” value ([2]; isolate 5–6 (lineage 5)) was 32 to 64 µg/mL and the “MIC in MHB” value ([2]; isolate 7–3 (lineage 7)) was 128 µg/mL (≈ 60 µM). For the same compound, the “grouping of genome-sequenced isolates by MIC: high resistance” value ([2]; isolates 2–4, 2–6, 2–7, 2–9, 2–10, 7–3, 7–4, 7–7, wt MIC value 8 µg/mL) was “High resistance isolates: 8–16 ×wt MIC”, the MIC ([2]; isolates 2–4 and 2–6 (shared values), two biological replicates, mean when results varied) was 96 µg/mL (≈ 45 µM) and the “grouping of genome-sequenced isolates by MIC: low resistance” value ([2]; isolates 4-1, 4-3, 5-6, 5-8, 5-9, wt MIC value 8 µg/mL) was “Low resistance isolates: 4–8 ×wt MIC”. The “grouping of genome-sequenced isolates by MIC” value ([2]; isolates 4–4, 4–6, 4–10, 5–2, 5–4, 7–9, 7–10, wt MIC value 8 µg/mL) was “Isolates with wt MIC”, the “MIC of individual isolates” value ([2]; seven out of ten isolates from lineage no. 5) was 8 µg/mL and the “MIC lower as compared to that of the lineage population (256 µg/mL)” value ([2]; the other two isolates from lineage no. 4) was 4 fold. The “MIC of individual isolates, span” value ([2]; the ten isolates from lineage no. 2, biological replicates) was 8 to 128 µg/mL and the “MIC of individual isolates, span” value ([2]; the ten isolates from lineage no. 7) was 8 to 128 µg/mL.
